SMILES strings stand for the structures.

The target of assay [1] is NAMPT (human, recombinant, C-terminally His-tagged) (Homo sapiens, UniProt P43490). Kind of assay: Time-Resolved Fluorescence Resonance Energy Transfer (TR-FRET) Binding Assay of NAMPT. As to conditions: absence of substrates; 6.8 nM NAMPT, 200 nM probe, equilibrated 3 hours. The procedure, abridged: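 Displacement of 200 nM Oregon Green-labelled nicotinamide-competitive probe from 6.8 nM His-tagged NAMPT, detected with 1 nM Tb-anti-His; HEPES pH 7.5, 2% DMSO, 3 h room temperature. Em520/Em495 ratios normalized and fit four-parameter logistic for IC50.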
Sequence of NAMPT (human, recombinant, C-terminally His-tagged) (P43490 whole entry): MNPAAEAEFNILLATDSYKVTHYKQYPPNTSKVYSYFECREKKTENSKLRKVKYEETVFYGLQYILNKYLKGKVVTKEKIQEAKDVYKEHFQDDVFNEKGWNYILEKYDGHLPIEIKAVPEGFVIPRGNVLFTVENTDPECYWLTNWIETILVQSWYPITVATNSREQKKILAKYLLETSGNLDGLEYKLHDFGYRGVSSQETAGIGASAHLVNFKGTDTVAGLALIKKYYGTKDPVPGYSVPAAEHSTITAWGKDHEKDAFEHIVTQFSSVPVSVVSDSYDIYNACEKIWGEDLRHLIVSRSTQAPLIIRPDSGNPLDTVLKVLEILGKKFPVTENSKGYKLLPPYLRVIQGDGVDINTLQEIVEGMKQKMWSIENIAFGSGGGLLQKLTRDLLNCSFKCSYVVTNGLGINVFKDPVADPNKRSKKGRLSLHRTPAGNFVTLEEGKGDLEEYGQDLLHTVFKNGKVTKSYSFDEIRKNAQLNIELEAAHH
A general note: TR-FRET usually uses a lanthanide donor and a delayed reading to cut background.

Another assay addresses NAMPT (Homo sapiens, UniProt P43490). Kind of assay: Time-Resolved Fluorescence Resonance Energy Transfer (TR-FRET) Binding Assay of NAMPT with PRPP. The following applies: 200 μM PRPP and 2.5 mM ATP; 2 nM NAMPT, 2 nM probe, equilibrated 16 hours. In short, it runs like this:
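Binding was measured by TR-FRET with 2 nM NAMPT, 2 nM probe and 1 nM Tb-anti-His antibody in the presence of 200 μM PRPP and 2.5 mM ATP, with 2% DMSO. Equilibration lasted 16 h before reading, allowing possible enzymatic modification of compounds.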

Sequence of NAMPT (P43490 whole entry): as above

By IC50 is commonly meant the point on the concentration scale where inhibition reaches its midpoint. Take `CCOC(=O)C(C)(C)CNC(=O)N(Cc1ccc(C#N)cc1)c1ncc(C(=O)NCCCn2ccnc2)s1` [Example 163, ethyl 3-{[(4-cyanobenzyl)(5-{[3-(1H-imidazol-1-yl)propyl]carbamoyl}-1,3-thiazol-2-yl)carbamoyl]amino}-2,2-dimethylpropanoate]: the figures for the IC50 (in assay [1]; on NAMPT) were 6.8 µM and 171 nM, respectively.

Regarding `N#Cc1ccc(CN(C(=O)NC2CC(C(=O)O)C2)c2ncc(C(=O)NCCCn3ccnc3)s2)cc1` (stereo not drawn) [Example 164, 3-{[(4-cyanobenzyl)(5-{[3-(1H-imidazol-1-yl)propyl]carbamoyl}-1,3-thiazol-2-yl)carbamoyl]amino}cyclobutanecarboxylic acid], the figures for the IC50 (in assay [1]; on NAMPT) were above 10 µM and 583 nM, respectively.

In the case of `CCOC(=O)C(C)CNC(=O)N(Cc1ccc(C#N)cc1)c1ncc(C(=O)NCCCn2ccnc2)s1` (stereo not drawn) [Example 165, ethyl 3-{[(4-cyanobenzyl)(5-{[3-(1H-imidazol-1-yl)propyl]carbamoyl}-1,3-thiazol-2-yl)carbamoyl]amino}-2-methylpropanoate], the IC50 in assay [1] stood at 0.34 µM; at NAMPT, 99.1 nM.

With `COCCCNC(=O)N(Cc1ccc(C#N)cc1)c1ncc(C(=O)NCCCn2ccnc2)s1` [Example 166, 2-{(4-cyanobenzyl)[(3-methoxypropyl)carbamoyl]amino}-N-[3-(1H-imidazol-1-yl)propyl]-1,3-thiazole-5-carboxamide], the concentration for half-maximal inhibition (IC50) is above 10 µM in assay [1] and 630 nM on NAMPT.

With `CC(C)C(CC(=O)O)NC(=O)N(Cc1ccc(C#N)cc1)c1ncc(C(=O)NCCCn2ccnc2)s1` (stereo not drawn) [Example 168, 3-{[(4-cyanobenzyl)(5-{[3-(1H-imidazol-1-yl)propyl]carbamoyl}-1,3-thiazol-2-yl)carbamoyl]amino}-4-methylpentanoic acid], the IC50 in assay [1] is above 10 µM; on NAMPT it was 1390 nM.

On to `CC(C)(CNC(=O)N(Cc1ccc(C#N)cc1)c1ncc(C(=O)NCCCn2ccnc2)s1)C(=O)O` [Example 169, 3-{[(4-cyanobenzyl)(5-{[3-(1H-imidazol-1-yl)propyl]carbamoyl}-1,3-thiazol-2-yl)carbamoyl]amino}-2,2-dimethylpropanoic acid], for which the IC50 in assay [1] was 8.45 µM; at NAMPT, 266 nM.

For `N#Cc1ccc(CN(C(=O)NCCC(=O)O)c2ncc(C(=O)NCCCn3ccnc3)s2)cc1` [Example 171, N-[(4-cyanobenzyl)(5-{[3-(1H-imidazol-1-yl)propyl]carbamoyl}-1,3-thiazol-2-yl)carbamoyl]-beta-alanine], the values for the IC50 (in assay [1]; on NAMPT) were 8.79 µM and 32.1 nM, respectively.

As to `N#Cc1ccc(CN(C(=O)NCCCC(=O)O)c2ncc(C(=O)NCCCn3ccnc3)s2)cc1` [Example 172, 4-{[(4-cyanobenzyl)(5-{[3-(1H-imidazol-1-yl)propyl]carbamoyl}-1,3-thiazol-2-yl)carbamoyl]amino}butanoic acid], the IC50 is above 10 µM in assay [1] and 153 nM on NAMPT.

In the case of `CC(C)CCN(C(=O)CC1CCCO1)c1ncc(C(=O)NCCCn2ccnc2)s1` (stereo not drawn) [Example 173, N-[3-(1H-imidazol-1-yl)propyl]-2-[(3-methylbutyl)(tetrahydrofuran-2-ylacetyl)amino]-1,3-thiazole-5-carboxamide], the IC50 in assay [1] was 0.707 µM; at NAMPT, 2.33 nM.

On to `CC(C)CCN(C(=O)CC1CCOC1)c1ncc(C(=O)NCCCn2ccnc2)s1` (stereo not drawn) [Example 174, N-[3-(1H-imidazol-1-yl)propyl]-2-[(3-methylbutyl)(tetrahydrofuran-3-ylacetyl)amino]-1,3-thiazole-5-carboxamide], for which the IC50 in assay [1] was determined as 0.334 µM; at NAMPT, 0.714 nM.

On to `COCCC(=O)N(CCOC)c1ncc(C(=O)NCCCn2ccnc2)s1` [Example 175, N-[3-(1H-imidazol-1-yl)propyl]-2-[(2-methoxyethyl)(3-methoxypropanoyl)amino]-1,3-thiazole-5-carboxamide], for which the results for the IC50 (in assay [1]; at NAMPT) were 1.15 µM and 0.6 nM, respectively.

Turning to `COCCCN(C(=O)CCOC)c1ncc(C(=O)NCCCn2ccnc2)s1` [Example 176, N-[3-(1H-imidazol-1-yl)propyl]-2-[(3-methoxypropanoyl)(3-methoxypropyl)amino]-1,3-thiazole-5-carboxamide], the IC50 in assay [1] was found to be 7.36 µM; at NAMPT it was 0.365 nM.

As to `COCCC(=O)N(CC1CCCCO1)c1ncc(C(=O)NCCCn2ccnc2)s1` (stereo not drawn) [Example 177, N-[3-(1H-imidazol-1-yl)propyl]-2-[(3-methoxypropanoyl)(tetrahydro-2H-pyran-2-ylmethyl)amino]-1,3-thiazole-5-carboxamide], the IC50 in assay [1] came out at 4.62 µM; on NAMPT, 0.653 nM.

Consider `COCCC(=O)N(CC1CCCO1)c1ncc(C(=O)NCCCn2ccnc2)s1` (stereo not drawn) [Example 178, N-[3-(1H-imidazol-1-yl)propyl]-2-[(3-methoxypropanoyl)(tetrahydrofuran-2-ylmethyl)amino]-1,3-thiazole-5-carboxamide], for which the IC50 stood at 6.97 µM in assay [1] and 0.813 nM at NAMPT.

As to `COCCC(=O)N(CCOC(C)C)c1ncc(C(=O)NCCCn2ccnc2)s1` [Example 179, N-[3-(1H-imidazol-1-yl)propyl]-2-{(3-methoxypropanoyl)[2-(propan-2-yloxy)ethyl]amino}-1,3-thiazole-5-carboxamide], the IC50 in assay [1] worked out at 9.8 µM; at NAMPT it was 0.492 nM.

Turning to `COCCC(=O)N(CCC1OCCO1)c1ncc(C(=O)NCCCn2ccnc2)s1` [Example 180, 2-{[2-(1,3-dioxolan-2-yl)ethyl](3-methoxypropanoyl)amino}-N-[3-(1H-imidazol-1-yl)propyl]-1,3-thiazole-5-carboxamide], the results for the IC50 (in assay [1]; at NAMPT) were 7.71 µM and 0.333 nM, respectively.

For the compound `COCCC(=O)N(CC1COCCO1)c1ncc(C(=O)NCCCn2ccnc2)s1` (stereo not drawn) [Example 181, 2-[(1,4-dioxan-2-ylmethyl)(3-methoxypropanoyl)amino]-N-[3-(1H-imidazol-1-yl)propyl]-1,3-thiazole-5-carboxamide], the results for the IC50 (in assay [1]; at NAMPT) were above 10 µM and 0.556 nM, respectively.

On to `COCCN(C(=O)CCc1ccc(F)cc1)c1ncc(C(=O)NCCCn2ccnc2)s1` [Example 182, 2-{[3-(4-fluorophenyl)propanoyl](2-methoxyethyl)amino}-N-[3-(1H-imidazol-1-yl)propyl]-1,3-thiazole-5-carboxamide], for which the IC50 turned out to be 2.59 µM in assay [1] and 0.264 nM on NAMPT.

For the compound `COCCN(C(=O)CCc1cccnc1)c1ncc(C(=O)NCCCn2ccnc2)s1` [Example 183, N-[3-(1H-imidazol-1-yl)propyl]-2-{(2-methoxyethyl)[3-(pyridin-3-yl)propanoyl]amino}-1,3-thiazole-5-carboxamide], the IC50 was found to be 2.94 µM in assay [1] and 0.281 nM on NAMPT.

For the compound `COCCN(C(=O)Cc1cccnc1)c1ncc(C(=O)NCCCn2ccnc2)s1` [Example 184, N-[3-(1H-imidazol-1-yl)propyl]-2-[(2-methoxyethyl)(pyridin-3-ylacetyl)amino]-1,3-thiazole-5-carboxamide], the IC50 in assay [1] was determined as 0.763 µM; on NAMPT it was 0.285 nM.

Consider `COCCN(C(=O)Cc1ccc2ccccc2c1)c1ncc(C(=O)NCCCn2ccnc2)s1` [Example 185, N-[3-(1H-imidazol-1-yl)propyl]-2-[(2-methoxyethyl)(naphthalen-2-ylacetyl)amino]-1,3-thiazole-5-carboxamide], for which the IC50 in assay [1] stood at 0.633 µM; on NAMPT, 0.476 nM.

Source of the values: US9334264B2, “NAMPT inhibitors” (AbbVie Inc., priority 2012, dated 2016).
